Reference: patent publication US7138246B2, “Methods for identifying or screening for agents that modulate 17β-HSD3” (Bristol-Myers Squibb Company, priority 2004, dated 2006)
Like-named read-outs stand apart in the source and are kept apart here.

What was measured:
17β-HSD3 [1] = biological target: T1, 17β-HSD3 (Homo sapiens, UniProt P37058); test: 17β-HSD3 SEAP assay (PSA reporter) in MDA MB 453/17β-HSD3 cells; assay type: cell-based; set-up: expressed in transfected cells
T1 sequence (P37058 1-310): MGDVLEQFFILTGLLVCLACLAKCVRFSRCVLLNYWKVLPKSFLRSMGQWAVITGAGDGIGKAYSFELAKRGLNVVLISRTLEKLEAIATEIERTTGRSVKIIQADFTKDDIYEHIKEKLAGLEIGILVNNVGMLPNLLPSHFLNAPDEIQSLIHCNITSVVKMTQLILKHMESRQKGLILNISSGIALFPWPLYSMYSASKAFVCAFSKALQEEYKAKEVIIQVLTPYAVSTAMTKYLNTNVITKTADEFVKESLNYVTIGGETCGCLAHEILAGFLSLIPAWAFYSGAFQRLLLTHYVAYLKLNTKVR
Procedure: Cultured MDA MB 453/17β-HSD3 cells were trypsinized, spun at 1000 rpm for 10 minutes, and resuspended in DMEM/10% cFBS supplemented with 5 mM BES at a concentration of 4×10^7 cells per mL. The cells (aliquots of 1×10^7 cells) were then transiently transfected with 3 μg of the PSA-SEAP construct by electroporation at 0.22 kVolts and 960 μFD with a time constant of […]. After a short recovery period, the cells were spun down and resuspended in DMEM/10% cFBS and plated into 96-well tissue culture plates (5×10^5 cells per well in 50 μL). After overnight adherence, the compounds were diluted in DMEM/10% and cFBS was added to the cells. 24 hours later, the medium was removed, fresh media containing the compounds was added in the presence of 10 nM Androstenedione, and this mixture was allowed to incubate for 24 hours. 25 μL of the culture supernatant was then removed and plated into 96-well black Optiplates (Perkin Elmer) for SEAP measurement as described by the reagent manufacturer (Tropix). Briefly, the supernatant was heat inactivated at 65° C. for 30 minutes and then allowed to cool to room temperature. Assay buffer (25 μL, Tropix) was then added and allowed to mix for 5 minutes followed by the addition of the Reaction buffer (25 μL, Tropix) and the plates were then incubated for 20 minutes in the dark. Plates were then read using a Packard Instruments TopCount with luminescent detection and signal was captured for 10 seconds per well and photon emission (cps) was averaged. A standard MTS assay (Promega) as described by the manufacturer, was performed in parallel to normalize the data based on cell numbers. Data analysis including percent inhibition and IC50 determination, based on 10 point serially diluted curves in duplicate, was then performed using Microsoft Excel and XLFit.
The analysis of 17β-HSD3 steroid conversion by TLC is hampered by the limitation to examine large numbers of compounds. […] To test this system, a prostate specific antigen (PSA) reporter plasmid was transfected into MDA-MB453 cells stably expressing 17β-HSD3 and stimulated with different concentrations of androstenedione (FIG. 5B).
To evaluate the suitability of this cellular assay for monitoring 17β-HSD3 cell based activity, the inhibitory effects of 18β-glycyrrhetinic acid and […] were examined.

17β-HSD3 [2] = biological target: T1, 17β-HSD3; set-up: made in house; CHAPS-solubilised 100,000 x g supernatant; conditions: read-out: Km for androstenedione, previously published value; human 17β-HSD3 prepared from testes microsomal fractionation; cited from earlier work
17β-HSD3 [3] = biological target: T1, 17β-HSD3; test: 17β-HSD3 scintillation proximity assay (SPA); assay type: biochemical; set-up: made in house; CHAPS-solubilised 100,000 x g supernatant
Procedure: (§1) HEK293/17β-HSD3 cells were harvested by scraping or treatment with Cell Dissociation Buffer (Invitrogen) and collected in ice cold Phosphate Buffered Saline (PBS) containing a protease inhibitor cocktail (Complete Tabs, Roche Diagnostics). The cells were then pelleted by centrifugation at 1000 rpm and washed once more in the same buffer. The cells were then resuspended in 2× the cell pellet volume with ice cold lysis buffer (40 mM Tris-HCl pH7.5, 2 mM DTT, 1 mM EDTA, 10% Glycerol (v/v), 0.5% CHAPS (w/v), 1M 1-(3-sulfopropyl)pyridinium hydroxide, Complete Tab(s)) and dounce homogenized on ice. The crude lysate was then incubated on ice for 60 minutes to allow for membrane protein solubilization, followed by centrifugation at 100,000×g for 60 minutes at 4° C. The supernatant was then removed and dialyzed overnight at 4° C. against the enzyme storage buffer (40 mM Tris-HCl pH 7.5, 40 mM KCl, 2 mM DTT, 1 mM EDTA, 20% Glycerol (v/v), Complete Tab(s)). Protein concentration was determined by the Bradford assay, the enzyme was aliquotted, and stored at −80° C. Activity was assessed using the SPA described below.
SPA beads conjugated to anti-mouse IgG were incubated overnight in SPA Bead Buffer (50 mM Tris pH 8.0, 10% Glycerol (v/v)), with anti-Testosterone monoclonal antibody (2 μg antibody per 1 mg of SPA beads) under gentle rotation. The antibody saturated bead complex was then spun down at 500 rpm for 10 minutes at 4° C. and the beads were resuspended in SPA Bead Buffer at a final concentration of 0.5 mg/160 μL. The anti-T/SPA Beads were then stored at 4° C. until needed. Enzymatic assays were conducted in 30 μL total reaction volumes in 96-well white Optiplates (Perkin Elmer). The reaction buffer consisted of 50 mM MES pH 6.0, 2 mM DTT, 0.1% CHAPS, 3 mM NADPH, 10% Glycerol (v/v), 850 nM 4-Androstene-3,17-Dione, and 50 nM [3H]4-Androstene-3,17-Dione (Specific Activity 70–110Ci/mmol). Compounds were diluted such that the final concentration of ethanol and DMSO would not exceed 3% (v/v) and 1% (v/v) respectively, corresponding to concentrations that had little or no effect on enzymatic activity (data not shown). Previously prepared and frozen 17β-HSD3 enzyme was diluted into ice cold buffer containing 50 mM Mes, 40 mM KCl, 2 mM DTT, 1 mM EDTA, and 10% glycerol (v/v) and added last to the reaction mixture. The reaction was allowed to proceed for 60 minutes at room temperature and was stopped by the addition of 10 μL of 0.1N HCl. After the reactions were stopped, an excess of the anti-T/SPA Beads (0.5 mg) were added to each well to a final volume of 200 μL. The plates were sealed and shaken at ˜200 rpm on an orbital shaker at room temp for at least 90 minutes or overnight at 4° C. After allowing the beads to settle, the amount of [3H]Testosterone produced in each well was determined by scintillation counting on a Perkin Elmer TopCount instrument and collected as DPMs. The data was then analyzed and percent inhibition and/or IC50 values, based on 10 point serially diluted curves in duplicate or triplicate, were calculated using Microsoft Excel and XLFit programs. […] Input samples and unbound supernatants, from the enzymatic reactions, were quantitated by scintillation counting to aid in the calculation of bound versus free testosterone produced. Km values were calculated using the Lineweaver-Burke formula and plots where 1/v=(Km+[s])/(Vmax [s]). […]

[4] = substrate: C[C@]12CCC(=O)C=C1CC[C@@H]1[C@@H]2CC[C@]2(C)C(=O)CC[C@@H]12; test: 17β-HSD3 scintillation proximity assay (SPA); assay type: biochemical, human; conditions: other: 17β-HSD3 from HEK293 transfectants; 0.01 to 10 μM input androstenedione; 3 mM NADPH
Procedure: as §1, with “The crude lysate was then incubated on ice for 60 minutes to allow for membrane protein solubilization, followed by centrifugation at 100,000×g for 60 minutes at 4° C. The supernatant was then removed and dialyzed overnight at 4° C. against the enzyme storage buffer (40 mM Tris-HCl pH 7.5, 40 mM KCl, 2 mM DTT, 1 mM EDTA, 20% Glycerol (v/v), Complete Tab(s)).” left out
SPA beads conjugated to anti-mouse IgG were incubated overnight in SPA Bead Buffer (50 mM Tris pH 8.0, 10% Glycerol (v/v)), with anti-Testosterone monoclonal antibody (2 μg antibody per 1 mg of SPA beads) under gentle rotation. […] After allowing the beads to settle, the amount of [3H]Testosterone produced in each well was determined by scintillation counting on a Perkin Elmer TopCount instrument and collected as DPMs. The data was then analyzed and percent inhibition and/or IC50 values, based on 10 point serially diluted curves in duplicate or triplicate, were calculated using Microsoft Excel and XLFit programs. […]

C[C@]12CCC(=O)C=C1CC[C@@H]1[C@@H]2CC[C@]2(C)C(=O)CC[C@@H]12 [androstenedione]
induction of PSA reporter (17β-HSD3 [1]): 9 fold
activation of PSA reporter (17β-HSD3 [1]; 12 nM androstenedione, 17β-HSD3-MDA-MB453 transfectants): 9 fold
induction of PSA reporter (17β-HSD3 [1]; 1 μM androstenedione, 17β-HSD3-MDA-MB453 cells): 25 fold
Km (17β-HSD3 [2]): 0.72 µM

NC(=O)C1=CN([C@@H]2O[C@H](COP(=O)(O)OP(=O)(O)OC[C@H]3O[C@@H](n4cnc5c(N)ncnc54)[C@H](OP(=O)(O)O)[C@@H]3O)[C@@H](O)[C@H]2O)C=CC1 [NADPH]
Km (17β-HSD3 [3]; Lineweaver-Burke plots, read-out: Km for NADPH): 30 µM

CC(C)(O)C(=O)Nc1ccc([N+](=O)[O-])c(C(F)(F)F)c1 [hydroxyflutamide]
17β-HSD3 inhibitory activity in the SPA (17β-HSD3 [3]; FIG. 3B): did not display 17β-HSD3 inhibitory activity

B1: human 17β-HSD3 (Homo sapiens) (protein)
chain: T1 sequence (P37058 1-310)
notes: made in house; CHAPS-solubilised 100,000 x g supernatant
Km [4]: 0.92 µM
